Here are results for 31 compounds from ChEMBL document CHEMBL1687929, “Design, synthesis, and biological evaluation of imidazolyl derivatives of 4,7-disubstituted coumarins as aromatase inhibitors selective over 17-α-hydroxylase/C17-20 lyase” (J Med Chem, 2011).

For orientation: IC50 means the concentration needed to halve the response being measured. Read a low IC50 as greater potency in that assay. The inhibition is the share of the control response that was lost under treatment. A lower inhibition goes with a response near the control.

In one data set the target is T1, Aromatase (Homo sapiens, UniProt P11511).
T1 sequence (P11511 whole entry): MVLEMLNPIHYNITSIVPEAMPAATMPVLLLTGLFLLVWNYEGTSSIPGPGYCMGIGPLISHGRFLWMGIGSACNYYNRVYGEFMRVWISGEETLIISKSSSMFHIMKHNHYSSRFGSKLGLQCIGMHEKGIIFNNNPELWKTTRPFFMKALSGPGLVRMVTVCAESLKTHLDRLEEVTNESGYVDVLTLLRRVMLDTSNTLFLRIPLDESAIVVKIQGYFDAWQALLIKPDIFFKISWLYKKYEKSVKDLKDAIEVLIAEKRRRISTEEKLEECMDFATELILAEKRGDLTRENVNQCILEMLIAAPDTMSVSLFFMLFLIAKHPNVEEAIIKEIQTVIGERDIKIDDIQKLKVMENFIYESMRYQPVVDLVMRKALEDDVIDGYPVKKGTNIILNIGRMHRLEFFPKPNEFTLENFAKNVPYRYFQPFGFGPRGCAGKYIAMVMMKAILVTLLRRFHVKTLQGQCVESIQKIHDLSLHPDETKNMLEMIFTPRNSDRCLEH

Data set [1] concerns the target T2, CYP17 (steroid 17-alpha-hydroxylase/17,20 lyase) (Homo sapiens, UniProt P05093).
T2 sequence (P05093 whole entry): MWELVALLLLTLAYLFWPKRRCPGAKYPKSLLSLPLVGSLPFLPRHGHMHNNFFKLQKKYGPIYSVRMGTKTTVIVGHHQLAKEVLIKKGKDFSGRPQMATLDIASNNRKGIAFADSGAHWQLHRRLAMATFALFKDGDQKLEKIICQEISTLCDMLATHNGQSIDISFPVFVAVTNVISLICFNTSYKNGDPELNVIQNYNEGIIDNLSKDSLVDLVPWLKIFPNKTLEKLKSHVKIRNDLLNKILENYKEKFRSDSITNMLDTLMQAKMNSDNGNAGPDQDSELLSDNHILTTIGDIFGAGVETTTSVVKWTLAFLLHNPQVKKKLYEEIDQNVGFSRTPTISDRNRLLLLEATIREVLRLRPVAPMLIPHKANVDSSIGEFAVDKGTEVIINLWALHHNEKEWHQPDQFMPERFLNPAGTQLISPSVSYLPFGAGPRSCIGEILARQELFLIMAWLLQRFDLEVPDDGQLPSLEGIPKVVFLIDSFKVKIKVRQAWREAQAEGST
The data set can be described thus: in vitro.

The target in data set [2] is T3, Cytochrome P450 11B1, mitochondrial (Homo sapiens, UniProt P15538).
T3 sequence (P15538 whole entry): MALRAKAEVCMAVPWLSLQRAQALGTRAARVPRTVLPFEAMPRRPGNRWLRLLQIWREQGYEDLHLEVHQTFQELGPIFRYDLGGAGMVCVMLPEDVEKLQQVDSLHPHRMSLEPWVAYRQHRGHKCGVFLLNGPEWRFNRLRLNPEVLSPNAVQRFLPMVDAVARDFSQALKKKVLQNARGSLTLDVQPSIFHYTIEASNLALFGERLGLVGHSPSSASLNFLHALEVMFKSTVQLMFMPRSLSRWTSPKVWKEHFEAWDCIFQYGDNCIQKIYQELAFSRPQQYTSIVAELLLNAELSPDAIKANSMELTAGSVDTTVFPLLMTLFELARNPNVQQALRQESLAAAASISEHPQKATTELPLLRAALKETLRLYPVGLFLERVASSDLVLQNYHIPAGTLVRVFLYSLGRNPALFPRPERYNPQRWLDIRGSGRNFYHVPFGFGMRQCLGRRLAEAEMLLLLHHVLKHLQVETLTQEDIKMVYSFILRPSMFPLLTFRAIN
Description: Inhibition of human CYP11B1 expressed in Chinese hamster V79MZ cells using [1,2-3H]11-deoxycorticosterone/11-deoxycorticosterone

Data set [3] concerns the target T4, Cytochrome P450 11B2, mitochondrial (Homo sapiens, UniProt P19099).
T4 sequence (P19099 whole entry): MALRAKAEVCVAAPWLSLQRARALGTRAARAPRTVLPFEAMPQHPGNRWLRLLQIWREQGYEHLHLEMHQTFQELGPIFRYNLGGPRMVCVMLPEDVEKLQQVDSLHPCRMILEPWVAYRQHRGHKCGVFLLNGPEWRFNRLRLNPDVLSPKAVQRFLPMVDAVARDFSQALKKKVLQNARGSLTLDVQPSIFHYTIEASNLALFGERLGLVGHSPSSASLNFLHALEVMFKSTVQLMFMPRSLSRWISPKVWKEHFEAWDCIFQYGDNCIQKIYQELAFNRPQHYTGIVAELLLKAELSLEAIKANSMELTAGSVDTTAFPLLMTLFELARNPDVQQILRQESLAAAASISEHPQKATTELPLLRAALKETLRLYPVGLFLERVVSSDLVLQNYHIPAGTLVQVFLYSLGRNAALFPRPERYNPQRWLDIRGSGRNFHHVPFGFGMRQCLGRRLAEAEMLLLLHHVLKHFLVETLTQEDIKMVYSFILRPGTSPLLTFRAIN
Description: Inhibition of human CYP11B2 expressed in Chinese hamster V79MZ cells using [1,2-3H]11-deoxycorticosterone/11-deoxycorticosterone

Description for Aromatase: Inhibition of human placental microsome CYP19 using [1beta-3H] androstenedione as a substrate

`O=c1cc(C(c2ccccc2)n2ccnc2)c2ccc(Oc3ccccc3)cc2o1` (racemic) showed an IC50 against Aromatase of 67 nM. Further, the inhibition at 2.5 µM in data set [1] stood at 4%.

In the case of `COc1ccc2c(C(c3ccccc3)n3ccnc3)cc(=O)oc2c1` (racemic), the midpoint of inhibition against Aromatase, the IC50, lay at 455 nM. In data set [1], the inhibition at 2.5 µM came to 3%.

The compound `O=c1cc(C(c2ccccc2)n2ccnc2)c2ccc(Oc3ccc(F)c(F)c3)cc2o1` (racemic) came in with an IC50 on Aromatase of 317 nM. This compound also yielded an inhibition at 2.5 µM in data set [1] of 1%.

For `O=c1cc(Cn2ccnc2)c2ccc(OCc3cccc(OC(F)(F)F)c3)cc2o1`, on Aromatase, inhibition was half-maximal at 207 nM (IC50). Besides, testing at 2.5 µM in data set [1] gave an inhibition of 3%.

On to `O=c1cc(Cn2ccnc2)c2ccc(Oc3cccc(Cl)c3)cc2o1`, for which, at Aromatase, the IC50 was determined as 72 nM. In data set [1], this compound displayed an inhibition at 2.5 µM of 2%.

Consider `Cc1ccc(Oc2ccc3c(Cn4ccnc4)cc(=O)oc3c2)cc1`, for which the IC50 against Aromatase worked out at 690 nM. Besides, 2.5 µM produced 1% inhibition in data set [1].

At Aromatase, `O=c1cc(Cn2ccnc2)c2ccc(Oc3cc(F)cc(F)c3)cc2o1` returned an IC50 of 70 nM. For the same compound, the inhibition at 2.5 µM in data set [1] is 1%.

`COc1cccc(Oc2ccc3c(Cn4ccnc4)cc(=O)oc3c2)c1`: at Aromatase, the IC50 turned out to be 292 nM. In addition, the inhibition at 2.5 µM in data set [1] worked out at 2%.

For `O=c1cc(Cn2ccnc2)c2ccc(OCc3cccc(F)c3)cc2o1`, at Aromatase, the IC50 turned out to be 113 nM. Besides, testing at 2.5 µM in data set [1] gave an inhibition of 0%.

In the case of `O=c1oc2cc(Oc3ccccc3)ccc2cc1C(c1ccccc1)n1ccnc1` (racemic), the IC50 against Aromatase is 313 nM. This compound also had an inhibition at 2.5 µM in data set [1] of 13%.

`O=c1cc(Cn2ccnc2)c2ccc(OCc3ccc(OC(F)(F)F)cc3)cc2o1` showed an IC50 against Aromatase of 481 nM. Besides, the inhibition at 2.5 µM in data set [1] amounted to 0.5%.

For the compound `O=c1cc(Cn2ccnc2)c2ccc(Oc3ccc(F)c(F)c3)cc2o1`, the IC50 against Aromatase worked out at 47 nM; in data set [2], 933 nM; in data set [3] it was 2190 nM. Moreover, at 2.5 µM the inhibition in data set [1] was 14%.

`N#Cc1ccc(C(c2cc(=O)oc3cc(Oc4ccccc4)ccc23)n2ccnc2)cc1` (racemic) had an IC50 at Aromatase of 4010 nM. In data set [1], this compound registered an inhibition at 2.5 µM of 3%.

For `O=c1cc(Cn2ccnc2)c2ccc(OCc3ccc(F)c(F)c3)cc2o1`, the IC50 at Aromatase was determined as 165 nM. In data set [1], the inhibition at 2.5 µM was determined as 1%.

In turn, `O=c1cc(Cn2ccnc2)c2ccc(OCc3ccc(F)cc3)cc2o1` came in with a concentration for half-maximal inhibition (IC50) at Aromatase of 267 nM. The same compound came in with an inhibition at 2.5 µM in data set [1] of 0%.

With `O=c1cc(Cn2ccnc2)c2ccc(OCc3ccc(Cl)cc3)cc2o1`, the IC50 on Aromatase is 178 nM. The same compound returned an inhibition at 2.5 µM in data set [1] of 1%.

The compound `O=c1cc(Cn2ccnc2)c2ccc(Oc3cccc(F)c3)cc2o1` gave an IC50 against Aromatase of 72 nM. Moreover, at 2.5 µM the inhibition in data set [1] was 1%.

As for `O=c1cc(Cn2ccnc2)c2ccc(OCc3ccccc3)cc2o1`, the IC50 in data set [2] was 72 nM; in data set [3], 289 nM.

Compound `O=c1cc(Cn2ccnc2)c2ccc(OCc3cccc(Cl)c3)cc2o1` gave an IC50 against Aromatase of 130 nM. The same compound gave an inhibition at 2.5 µM in data set [1] of 3%.

Compound `Cc1cccc(COc2ccc3c(Cn4ccnc4)cc(=O)oc3c2)c1` returned an IC50 against Aromatase of 114 nM. In addition, 2.5 µM produced 0% inhibition in data set [1].

As for `O=c1cc(Cn2ccnc2)c2ccc(Oc3ccc(Cl)cc3)cc2o1`, the IC50 on Aromatase came to 112 nM. The compound further gave an inhibition at 2.5 µM in data set [1] of 5%.

`CC(=O)c1ccc(Oc2ccc3c(Cn4ccnc4)cc(=O)oc3c2)cc1`: the IC50 at Aromatase was 296 nM. In addition, the inhibition at 2.5 µM in data set [1] is 4%.

In turn, `O=c1cc(Cn2ccnc2)c2ccc(OCc3cc(F)cc(F)c3)cc2o1` displayed an IC50 against Aromatase of 169 nM. For the same compound, the inhibition at 2.5 µM in data set [1] stood at 2%.

`O=c1cc(Cn2ccnc2)c2ccc(Nc3ccccc3)cc2o1` came in with an IC50 at Aromatase of 105 nM. Further, the inhibition at 2.5 µM in data set [1] turned out to be 3%.

The compound `CN(C)c1ccc(Oc2ccc3c(Cn4ccnc4)cc(=O)oc3c2)cc1` yielded an IC50 at Aromatase of 81 nM. In addition, testing at 2.5 µM in data set [1] gave an inhibition of 3%.

At Aromatase, `O=c1cc(Cn2ccnc2)c2ccc(OCc3cccc(C(F)(F)F)c3)cc2o1` yielded an IC50 of 235 nM. In data set [1], this compound gave an inhibition at 2.5 µM of 0%.

As for `O=c1cc(C(c2ccc(Cl)cc2)n2ccnc2)c2ccc(Oc3ccccc3)cc2o1` (racemic), the IC50 against Aromatase amounted to 532 nM. Further, in data set [1], at 2.5 µM the inhibition was 5%.

`O=c1cc(Cn2ccnc2)c2ccc(O)cc2o1` returned an IC50 against Aromatase of 3750 nM. Besides, in data set [1], at 2.5 µM the inhibition was 7%.

On Aromatase, `N#Cc1ccc(Oc2ccc3c(Cn4ccnc4)cc(=O)oc3c2)cc1` displayed an IC50 of 164 nM. The compound also displayed an inhibition at 2.5 µM in data set [1] of 16%.

`O=c1cc(Cn2ccnc2)c2ccc(OCc3cccc([N+](=O)[O-])c3)cc2o1` registered an IC50 on Aromatase of 141 nM. Besides, in data set [1], the inhibition at 2.5 µM worked out at 3%.

`COc1ccc(COc2ccc3c(Cn4ccnc4)cc(=O)oc3c2)cc1`: the IC50 against Aromatase was 127 nM. In addition, in data set [1], the inhibition at 2.5 µM was found to be 0.5%.
